Laboratory results: ChEMBL document CHEMBL5149966, “Bisphosphonates, Old Friends of Bones and New Trends in Clinics” (J Med Chem, 2021)
Blank lines part the entries; values can stand above or below the molecule they belong to.

What was measured:
Leishmania donovani = assay: Antiparasitic activity against amastigote stage Leishmania donovani MHOM/ET/67/L82 infected in CD-1 mouse peritoneal macrophage assessed as reduction in parasite burden incubated for 5 days by Giemsa staining based microscopy; type: functional, organism-based; details: MHOM/ET/67/L82, Peritoneal macrophage, 120 h
Toxoplasma gondii = assay: Antiparasitic activity against Toxoplasma gondii tachyzoites infected in human foreskin fibroblast incubated for 48 hrs followed by [5,6-3H]uracil addition and measured after 4 hrs by scintillation counter analysis; type: functional, organism-based; details: type III
Plasmodium falciparum = assay: Antiparasitic activity against Plasmodium falciparum 3D7 infected in human erythrocyte assessed as intraerythrocytic growth inhibition incubated for 24 hrs followed by [3H]hypoxanthine addition by microbeta scintillation counter analysis; type: functional, organism-based; details: 3D7, Erythrocyte
Entamoeba histolytica [1] = assay: Antiparasitic activity against Entamoeba histolytica trophozoites infected in hamster liver to induce hepatic abscess assessed as reduction in liver abscess formation at 10 mg/kg, ip for 5 days; type: functional; design: scale not given: the % may be the effect or the level left; details: time 5 day
[2] = tested on: Trypanosoma brucei rhodesiense; assay: Antiparasitic activity against Trypanosoma brucei rhodesiense STIB900 bloodstream trypomastigotes assessed as parasite growth inhibition incubated for 3 days by Alamar Blue fluorometric assay; type: functional, organism-based; details: STIB900, 72 h
Entamoeba histolytica [3] = assay: Antiparasitic activity against Entamoeba histolytica trophozoites assessed as parasite growth inhibition incubated for 90 hrs followed by [3H]hypoxanthine addition and measured after 6 hrs by scintillation counter analysis; type: functional, organism-based
[4] = target: T1, Ditrans,polycis-undecaprenyl-diphosphate synthase ((2E,6E)-farnesyl-diphosphate specific) (Escherichia coli (strain K12), UniProt P60472); assay: Inhibition of Escherichia coli UPPS
T1 sequence (P60472 whole entry): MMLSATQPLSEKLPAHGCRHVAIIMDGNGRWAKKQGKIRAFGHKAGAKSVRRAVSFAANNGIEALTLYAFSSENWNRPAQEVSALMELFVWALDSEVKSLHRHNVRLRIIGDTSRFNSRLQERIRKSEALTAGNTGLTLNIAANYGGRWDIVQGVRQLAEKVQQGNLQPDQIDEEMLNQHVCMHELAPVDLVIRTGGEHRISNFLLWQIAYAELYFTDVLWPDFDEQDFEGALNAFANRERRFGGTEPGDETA

Plasmodium berghei = assay: Antiparasitic activity against Plasmodium berghei ANKA infected in BALB/c mouse assessed as reduction in parasitemia at 25 mg/kg, ip for 4 days; type: functional; design: scale not given: the % may be the effect or the level left; details: time 4 day
Rattus norvegicus = organism: Rattus norvegicus; assay: Anti-osteoclast activity rat assessed as inhibition of bone resorption relative to control; type: functional
[5] = Drug distribution in NMRI mouse liver at 4.2 mg/kg administered as C14-lableled compound and assessed as radioactivity and measured upto 2 hrs; type: ADME, organism-based; details: in vivo
[6] = Drug distribution in NMRI mouse spleen at 4.2 mg/kg administered as C14-lableled compound and assessed as radioactivity and measured upto 2 hrs; type: ADME, organism-based; details: in vivo
[7] = Drug uptake in Beagle dog thyroid gland at 0.15 mg/kg, iv administered as C14-lableled compound and assessed as radioactivity after 96 hrs by autoradiography; type: ADME, organism-based, Canis lupus familiaris; details: in vivo
[8] = Drug uptake in Beagle dog knee cartilage at 0.15 mg/kg, iv administered as C14-lableled compound and assessed as radioactivity after 96 hrs by autoradiography; type: ADME, organism-based, Canis lupus familiaris, Cartilage tissue; details: in vivo
[9] = Drug uptake in Beagle dog aorta at 0.15 mg/kg, iv administered as C14-lableled compound and assessed as radioactivity after 96 hrs by autoradiography; type: ADME, organism-based, Canis lupus familiaris; details: in vivo
[10] = Drug uptake in Beagle dog heart at 0.15 mg/kg, iv administered as C14-lableled compound and assessed as radioactivity after 96 hrs by autoradiography; type: ADME, organism-based, Canis lupus familiaris; details: in vivo
[11] = Drug uptake in Beagle dog lung at 0.15 mg/kg, iv administered as C14-lableled compound and assessed as radioactivity after 96 hrs by autoradiography; type: ADME, organism-based, Canis lupus familiaris; details: in vivo
[12] = Drug uptake in Beagle dog spleen at 0.15 mg/kg, iv administered as C14-lableled compound and assessed as radioactivity after 96 hrs by autoradiography; type: ADME, organism-based, Canis lupus familiaris; details: in vivo
[13] = Drug uptake in Beagle dog sciatic nerve at 0.15 mg/kg, iv administered as C14-lableled compound and assessed as radioactivity after 96 hrs by autoradiography; type: ADME, organism-based, Canis lupus familiaris; details: in vivo
[14] = Drug uptake in Beagle dog pancreas at 0.15 mg/kg, iv administered as C14-lableled compound and assessed as radioactivity after 96 hrs by autoradiography; type: ADME, organism-based, Canis lupus familiaris; details: in vivo
[15] = Drug uptake in Beagle dog adrenal tissue at 0.15 mg/kg, iv administered as C14-lableled compound and assessed as radioactivity after 96 hrs by autoradiography; type: ADME, organism-based, Canis lupus familiaris; details: in vivo
[16] = Drug uptake in Beagle dog liver at 0.15 mg/kg, iv administered as C14-lableled compound and assessed as radioactivity after 96 hrs by autoradiography; type: ADME, organism-based, Canis lupus familiaris; details: in vivo
[17] = Drug uptake in Beagle dog small intestine at 0.15 mg/kg, iv administered as C14-lableled compound and assessed as radioactivity after 96 hrs by autoradiography; type: ADME, organism-based, Canis lupus familiaris; details: in vivo
[18] = Drug uptake in Beagle dog skin at 0.15 mg/kg, iv administered as C14-lableled compound and assessed as radioactivity after 96 hrs by autoradiography; type: ADME, organism-based, Canis lupus familiaris, Skin of body; details: in vivo
Trypanosoma cruzi = assay: Antiparasitic activity against Trypanosoma cruzi amastigotes infected in vero cells assessed as parasite growth inhibition incubated for 48 hrs by light microscopy; type: functional, organism-based

- IC50 (Leishmania donovani): > 200 µM
SMILES: O=P(O)(O)C(O)(CCc1cccnc1)P(=O)(O)O
- IC50 (Toxoplasma gondii): > 200 µM
- IC50 (Plasmodium falciparum): > 200 µM

SMILES: CCCCCCCCCCC(O)(P(=O)(O)O)P(=O)(O)O
- IC50 (Toxoplasma gondii): 0.28 µM
- Activity (Entamoeba histolytica [1]): 68%

- IC50 [2]: 92 µM
- IC50 (Leishmania donovani): > 200 µM
SMILES: CCCCCC(O)(P(=O)(O)O)P(=O)(O)O
- IC50 (Toxoplasma gondii): 9.1 µM
- IC50 (Plasmodium falciparum): 130 µM

SMILES: O=P(O)(O)C(O)(Nc1cccc(-c2ccccc2)c1)P(=O)(O)O
- IC50 (Plasmodium falciparum): > 200 µM
- IC50 (Entamoeba histolytica [3]): 6.6 µM

SMILES: O=P(O)(O)C(O)(Nc1ccc(-c2ccccc2)cc1)P(=O)(O)O
- IC50 (Plasmodium falciparum): 76.6 µM
- IC50 (Entamoeba histolytica [3]): 8.76 µM

- IC50 [4]: 0.59 µM
SMILES: O=P(O)(O)C(O)(Cc1cccc(-c2cccc3oc4ccccc4c23)c1)P(=O)(O)O

- IC50 [2]: 1.7 µM
SMILES: CCCCCCCCNC(O)(P(=O)(O)O)P(=O)(O)O

SMILES: CCCC(O)(P(=O)(O)O)P(=O)(O)O
- IC50 (Plasmodium falciparum): 5.53 µM
- IC50 (Entamoeba histolytica [3]): 157 µM
- Activity (Plasmodium berghei): 80%

SMILES: CCCCCCCCCC(O)(P(=O)(O)O)P(=O)(O)O
- IC50 (Toxoplasma gondii): 0.55 µM
- IC50 (Plasmodium falciparum): 0.83 µM

SMILES: Cc1cccnc1NC(P(=O)(O)O)P(=O)(O)O
- IC50 (Plasmodium falciparum): > 200 µM

SMILES: CC(N)CC(O)(P(=O)(O)O)P(=O)(O)O (stereo not drawn)
- IC50 (Leishmania donovani): > 200 µM
- IC50 (Plasmodium falciparum): > 200 µM

SMILES: NCCCC(O)(P(=O)(O)O)P(=O)(O)O [ALENDRONIC ACID]
- fold change (FC) (Rattus norvegicus): 400

SMILES: O=P(O)(O)C(Cl)(Cl)P(=O)(O)O [CLODRONIC ACID]
- fold change (FC) (Rattus norvegicus): 10

SMILES: CC(O)(P(=O)(O)O)P(=O)(O)O [ETIDRONIC ACID]
- fold change (FC) (Rattus norvegicus): 1

SMILES: CCCCCN(C)CCC(O)(P(=O)(O)O)P(=O)(O)O [IBANDRONIC ACID]
- fold change (FC) (Rattus norvegicus): 1000

- Drug uptake [5]: 20%
- Drug uptake [6]: 20%
SMILES: NCCC(O)(P(=O)(O)O)P(=O)(O)O [PAMIDRONIC ACID]
- fold change (FC) (Rattus norvegicus): 100

SMILES: O=P(O)(O)C(O)(Cc1cccnc1)P(=O)(O)O [RISEDRONIC ACID]
- fold change (FC) (Rattus norvegicus): 2000

SMILES: O.O=P(O)(O)C(O)(Cn1ccnc1)P(=O)(O)O [ZOLEDRONIC ACID]
- fold change (FC) (Rattus norvegicus): 6700
- Drug uptake [7]: 0.3 nmol/g
- Drug uptake [8]: 0.15 nmol/g
- Drug uptake [9]: > 0.1 nmol/g
- Drug uptake [10]: > 0.1 nmol/g
- Drug uptake [11]: > 0.1 nmol/g
- Drug uptake [12]: > 0.1 nmol/g
- Drug uptake [13]: > 0.1 nmol/g
- Drug uptake [14]: > 0.1 nmol/g
- Drug uptake [15]: > 0.1 nmol/g
- Drug uptake [16]: > 0.1 nmol/g
- Drug uptake [17]: > 0.1 nmol/g
- Drug uptake [18]: > 0.1 nmol/g
- IC50 [2]: 8.6 µM
- IC50 (Trypanosoma cruzi): 35 µM
- IC50 (Toxoplasma gondii): 6.7 µM
- IC50 (Plasmodium falciparum): > 200 µM
